In ChEMBL document CHEMBL2424648, “Carbonic anhydrase inhibitors: synthesis and inhibition of the human carbonic anhydrase isoforms I, II, VII, IX and XII with benzene sulfonamides incorporating 4,5,6,7-tetrabromophthalimide moiety” (Bioorg Med Chem, 2013):

Experiments:
[1] = molecular target: Carbonic anhydrase 12 (Homo sapiens, UniProt O43570)
[2] = molecular target: Carbonic anhydrase 1 (Homo sapiens, UniProt P00915)
[3] = molecular target: Carbonic anhydrase 2 (Homo sapiens, UniProt P00918)
[4] = molecular target: Carbonic anhydrase 9 (Homo sapiens, UniProt Q16790)

Carbonic anhydrase 1, sequence (P00915 whole entry): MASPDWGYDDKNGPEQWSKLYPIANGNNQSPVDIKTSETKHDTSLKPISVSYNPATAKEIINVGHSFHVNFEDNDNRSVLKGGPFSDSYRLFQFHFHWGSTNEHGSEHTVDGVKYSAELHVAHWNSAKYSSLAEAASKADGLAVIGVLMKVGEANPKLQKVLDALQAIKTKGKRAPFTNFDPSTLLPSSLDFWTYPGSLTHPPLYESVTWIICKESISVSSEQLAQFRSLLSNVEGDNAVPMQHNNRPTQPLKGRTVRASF
Carbonic anhydrase 12, sequence (O43570 whole entry): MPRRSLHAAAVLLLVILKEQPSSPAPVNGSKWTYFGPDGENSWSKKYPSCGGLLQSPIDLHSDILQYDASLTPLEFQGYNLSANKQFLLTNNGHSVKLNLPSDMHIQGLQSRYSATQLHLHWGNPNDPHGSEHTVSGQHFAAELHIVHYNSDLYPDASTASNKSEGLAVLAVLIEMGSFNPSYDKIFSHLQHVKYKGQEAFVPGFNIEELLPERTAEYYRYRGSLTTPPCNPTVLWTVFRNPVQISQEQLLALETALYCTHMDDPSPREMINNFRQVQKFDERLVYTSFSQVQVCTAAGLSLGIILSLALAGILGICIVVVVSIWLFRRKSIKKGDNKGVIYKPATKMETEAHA

Row | Compound | Ki [1] [nM] | Ki [2] [nM] | Ki [3] [nM] | Ki [4] [nM]
1 | NS(=O)(=O)c1ccc(CCNC(=S)Nc2ccc(-c3c4ccc(=O)cc-4oc4cc(O)ccc34)c(C(=O)O)c2)cc1 | 5 |  |  | 
2 | NS(=O)(=O)c1ccccc1N1C(=O)c2c(Br)c(Br)c(Br)c(Br)c2C1=O | 197 | > 10000 | 190 | 234
3 | NS(=O)(=O)c1ccc(N2C(=O)c3c(Br)c(Br)c(Br)c(Br)c3C2=O)c(Cl)c1 | 5.9 | 208 | 55 | 8.5
4 | NS(=O)(=O)c1ccc(N2C(=O)c3c(Br)c(Br)c(Br)c(Br)c3C2=O)c(Br)c1 | 6.5 | 143 | 47 | 8.8
5 | NS(=O)(=O)c1ccc(N2C(=O)c3c(Br)c(Br)c(Br)c(Br)c3C2=O)cc1 | 6.1 | 432 | 68 | 9.1
6 | NS(=O)(=O)c1ccc(CCN2C(=O)c3c(Br)c(Br)c(Br)c(Br)c3C2=O)cc1 | 10.2 |  |  | 15.9

The remaining compounds from weak to strong by Ki [1], led by results:

Row | Ki [1] [nM] | Ki [2] [nM] | Ki [3] [nM] | Ki [4] [nM] | Compound
7 | 19 | 340 |  |  | NS(=O)(=O)c1cccc(N2C(=O)c3c(Br)c(Br)c(Br)c(Br)c3C2=O)c1
8 | 12.3 | 251 |  | 12.3 | NS(=O)(=O)c1ccc(CN2C(=O)c3c(Br)c(Br)c(Br)c(Br)c3C2=O)cc1
9 | 7.5 | 770 | 96 | 9.4 | NS(=O)(=O)c1ccc(N2C(=O)c3c(Br)c(Br)c(Br)c(Br)c3C2=O)c(F)c1
